From US5004758A, “Water soluble camptothecin analogs useful for inhibiting the growth of animal tumor cells” (priority 1988, dated 1991)
Where a name gives a salt, the structure may show the parent alone. Read-outs that look alike come from different tables or passages of the source.

How the values were obtained:
[1] = in vivo; settings: mouse, ip
Description: (§2) Tumors used in these studies--P388 leukemia and its doxorbicin--and mitoxanrone-resistant sublines, L1210 leukemia, B16 melanoma, B16 melanoma/F10 subline, M5076 sarcoma and colon carcinoma 26--are maintained by serial transplantation in syngeneic strains of mice. For the leukemias, these tumors are maintained in DBA/2 mice. The M5076 sarcoma, the B16 melanoma and its F10 subline are maintained in C57B1/6 mice and the colon sarcinoma 26 is maintained in BALB/c mice. The leukemias and the M5076 sarcoma are serially transplanted i.p. as ascites cell suspensions while the B16 melanoma lines and the colon carcinoma 26 are serially transplanted as s.c. solid tumors.
(§3) For therapeutic trials, tumors are aseptically removed from donor mice and prepared as suspensions for implantation ip into test animals. The test animals for the colon carcinoma 26 are female BALB/c mice (20-25 gm). The test animals for the other tumor models are syngeneic female F1 hybrid B6D2F1 mice (C57B1/6 x DBA/2). The inoculum level varies with the type of tumor: P388 leukemia is inoculated at 10^6 cells per mouse, L1210 leukemia at 10^5 or 10^6 cells per mouse, M5076 sarcoma at 5×10^6 cells per mouse. For implantation of the B16 melanoma lines and the colon carcinoma 26, s.c. tumors from donor mice are minced and homogenized in loose fitting teflon glass homogenizer to give a tumor brei. The inoculum levels are 0.5 ml of a 10 percent (w:v) brei of the B16 melanoma lines and 0.5 ml of a 5 percent (w:v) brei of colon carcinoma 26. After tumor inoculation, mice randomized to treatment groups comprised of 6-8 mice each. In each experiment, there are three groups of untreated control mice. Drugs are dissolved or suspended in appropriate aqueous vehicles and given by a variety of routes and schedules of administration over a range of dose levels. Animals are housed in shoebox cages and are monitored daily for mortality for 30 (L1210), 45 (P388) or 60 (B16, M5076, colon 26) days.

[2] = tested on: L1210 leukemia cells; assay: cells; type: cell-based, mouse; settings: Mus musculus, L1210, read-out: In Vitro Activity IC50
Description: Cells were exposed continuously upon cloning into medium containing 0.2 percent Noble agar. After incubation at 37° C. in a CO2 incubator for 3 days, colonies were stained with viable cell specific formazan stain and, 24 hours later, were enumerated by a colony counter (Biotran II, New Brunswick Scientific Co., Edison, N.J.) adjusted to identify colonies of more than 50 cells. The concentration which reduced cloning efficiency by 50 percent IC50) was determined by interpolation.

[3] = tested on: sc M5076 sarcoma; assay: sc-implanted M5076 sarcoma in mice; type: in vivo, mouse; settings: for Mice without Palpable Tumors: B/ip
Excerpt: The inoculum varies with the tumor.

[4] = tested on: ip M5076 sarcoma; assay: ip-implanted M5076 sarcoma in mice; type: in vivo, mouse
Description: as §2, §3

[5] = tested on: IEC-6 (rat intestinal epithelium); assay: Cytotoxicity to normal rodent cells in culture; type: cell-based
Description: (§1) The cell lines are used and maintained as monolayer cultures in Minimal Essential Media (Grand Island Biological Co., Grand Island, N.Y.) supplemented with 10% fetal calf serum in a 5% CO2 humidified incubator at 37° C. Various concentrations of a Formula (I) compound under sterile conditions were allowed to react for 2 hours followed by aspiration of medium or were exposed continuously. Plates are incubated for 7 days at 37° C. in a CO2 incubator. Medium was aspirated and cells were fixed and stained with ethanol and Geisma stain. The surviving cell population was determined by scanning the plates with an image analyzer. The percent inhibition of proliferation was determined relative to cells incubated in the absence of drug and the 50 percent inhibitory concentration (IC50) was determined by interpolation.

[6] = tested on: NRK52E (rat kidney epithelium); assay: Cytotoxicity to normal rodent cells in culture; type: cell-based; settings: NRK-52E
Description: as §1

[7] = tested on: B16 Melanoma; assay: Cytotoxicity to tumor cells in culture; type: cell-based; settings: Mus musculus, continuous exposure
Description: as §1

[8] = tested on: LOVO; assay: Cytotoxicity to tumor cells in culture; type: cell-based; settings: Homo sapiens
Description: as §1

[9] = tested on: SKCO-1; assay: Cytotoxicity to tumor cells in culture; type: cell-based; settings: Homo sapiens
Description: as §1

[10] = tested on: DLD-1; assay: Cytotoxicity to tumor cells in culture; type: cell-based; settings: Homo sapiens
Description: as §1

[11] = tested on: CACO-2; assay: Cytotoxicity to tumor cells in culture; type: cell-based; settings: Homo sapiens
Description: as §1

[12] = tested on: SW-620; assay: Cytotoxicity to tumor cells in culture; type: cell-based; settings: Homo sapiens
Description: as §1

[13] = tested on: K12/Tr Colon Carcinoma; assay: Cytotoxicity to tumor cells in culture; type: cell-based; settings: K12/Tr rat colon carcinoma
Description: as §1

[14] = tested on: L1210 Leukemia; assay: Cytotoxicity to tumor cells in culture; type: cell-based; settings: Mus musculus, 2 hr exposure
Description: as §1

[15] = Aqueous solubility; type: physicochemical
[16] = tested on: P388/Doxorubicin; assay: ip P388/Doxorubicin multidrug resistant subline in mice; settings: for ILS / NCK (net tumor cell kill): P388/Doxorubicin, ip, Days 1 and 5
Description: (§4) Increase in lifespan (ILS) is based on median survival time of groups of 6 mice. Net tumor cell kill (NCK) is calculated from median survival time by standard methods, since survival time is a linear function of the log tumor cell burden.
(§5) For the leukemias, these tumors are maintained in DBA/2 mice. […] The leukemias and the M5076 sarcoma are serially transplanted i.p. as ascites cell suspensions while the B16 melanoma lines and the colon carcinoma 26 are serially transplanted as s.c. solid tumors.
(§6) For therapeutic trials, tumors are aseptically removed from donor mice and prepared as suspensions for implantation ip into test animals. […] The test animals for the other tumor models are syngeneic female F1 hybrid B6D2F1 mice (C57B1/6 x DBA/2). The inoculum level varies with the type of tumor: P388 leukemia is inoculated at 10^6 cells per mouse, L1210 leukemia at 10^5 or 10^6 cells per mouse, M5076 sarcoma at 5×10^6 cells per mouse. […] After tumor inoculation, mice randomized to treatment groups comprised of 6-8 mice each. In each experiment, there are three groups of untreated control mice. Drugs are dissolved or suspended in appropriate aqueous vehicles and given by a variety of routes and schedules of administration over a range of dose levels. Animals are housed in shoebox cages and are monitored daily for mortality for 30 (L1210), 45 (P388) or 60 (B16, M5076, colon 26) days.

[17] = tested on: iv P388 leukemia; settings: mouse, in vivo
Description: Tumors used in these studies P388 leukemia, L1210 leukemia and Lewis lung carcinoma--are maintained by serial transplantation in syngeneic strains of mice, DBA/2 for the leukemias and C57B1/6 for Lewis lung carcinoma. The leukemias are serially transplanted i.p. as ascites cell suspensions while the Lewis lung carcinoma is serially transplanted as a s.c. solid tumor.
For therapeutic trials, tumors were aseptically removed from donor mice and prepared as suspensions for implantation into test animals which for each tumor are syngeneic female F1 hybrid B6D2F1 mice (C57B1/6×DBA/2). The inoculum level varies with the type of tumor: P388 leukemia is inoculated at 10^6 cells per mouse, L1210 leukemia at 10^5 or 10^6 cells per mouse, and Lewis lung carcinoma at 0.25 ml of a 10 percent (w:v) brei. […] After tumor inoculation, mice are randomized to treatment groups of 6 to 8 mice each. In each experiment, there are three groups of untreated control mice.
Drugs are dissolved or suspended in appropriate aqueous vehicles and given i.p. or i.v. on various treatment schedules over a range of dosage levels. Animals are housed in shoebox cages and monitored daily for mortality for 30 (L1210), 45 (P388) or 60 (Lewis lung) days.

[18] = tested on: ip colon carcinoma 26; assay: ip-implanted colon carcinoma 26 in mice; type: in vivo, mouse; settings: ip Colon 26, B/ip (Days 1, 5, 9 and 13)
Description: as §2, §3

[19] = tested on: P388/Mitoxantrone; assay: ip P388/Mitoxantrone multidrug resistant subline in mice; settings: for ILS / NCK (net tumor cell kill): P388/Mitoxantrone, ip, Days 1 and 5
Description: as §4, §5, §6

[20] = tested on: ip P388 leukemia; settings: mouse, in vivo, ip
Description: as §4
Animals were implanted ip with 10^6 cells. Increase in lifespan (ILS) is based on median survival time of groups of 6 mice relative to untreated controls. Long-term survivors were tumor-free on Day 45.
as §2, §3

[21] = ip M5076, single dose on Days 1, 5, 9 and 13 ip, additional study
[22] = ip M5076, single dose on Days 1, 5 and 9 ip, additional study
[23] = 2 hr exposure, read-out: IC50 2 Hr. Exposure
[24] = continuous exposure, read-out: IC50 Continuous Exposure
[25] = 2 hr exposure, 7-day incubation, read-out: IC50 2 Hr. Exposure
[26] = 168 h, continuous 7-day exposure, read-out: IC50 Continuous Exposure

## CC[C@@]1(O)C(=O)OCc2c1cc1n(c2=O)Cc2cc3c(CN(C)C)c(O)ccc3nc2-1 [Compound No. 1S, (20 S) 9-Dimethylaminomethyl-10-hydroxycamptothecin Acetate Salt]
[1]
  MTD: 15 mg/kg
[2]
  IC50: 56 nM
[3]; mouse, in vivo
  TGI at three dose levels at or below a maximally tolerated dose: > 90
[3]; mouse, in vivo, 3.2 mg/kg
  Tumor growth inhibition (TGI): 64%
[3]; mouse, in vivo, 5.4 mg/kg
  Tumor growth inhibition (TGI): 92%
[3]; mouse, in vivo, 9 mg/kg
  Tumor growth inhibition (TGI): 98%
[3]; mouse, in vivo, 15 mg/kg
  Tumor growth inhibition (TGI): 100%
[3]; mouse, in vivo, 25 mg/kg
  Tumor growth inhibition (TGI): toxic
[3]; mouse, in vivo, sc
  Increase in Lifespan (ILS) or Inhibition of Tumor Growth (TGI): 100 % TGI
[3]; sc M5076, 3.2 mg/kg/injection
  Mice without Palpable Tumors: 2/8
[3]; sc M5076, 5.4 mg/kg/injection
  Mice without Palpable Tumors: 3/8
[3]; sc M5076, 9 mg/kg/injection
  Mice without Palpable Tumors: 6/8
[3]; sc M5076, 15 mg/kg/injection
  Mice without Palpable Tumors: 8/8
[3]; sc M5076, ip Days 1, 5, 9 and 13
  prolonged lifespan: 31%
[4]; ip M5076, C/ip (every 3 hours x4 on Days 1, 5 and 9), 0.62 mg/kg/injection
  Increase in lifespan (ILS): 70%
[4]; ip M5076, C/ip (every 3 hours x4 on Days 1, 5 and 9), 1.2 mg/kg/injection
  Increase in lifespan (ILS): 75%
[4]; ip M5076, C/ip (every 3 hours x4 on Days 1, 5 and 9), 5 mg/kg/injection
  Increase in lifespan (ILS): toxic
[4]; ip M5076, C/ip (every 3 hours x4 on Days 1, 5 and 9), 10 mg/kg/injection
  Increase in lifespan (ILS): toxic
[4]; ip M5076, C/sc (every 3 hours x4 on Days 1, 5 and 9), 0.62 mg/kg/injection
  Increase in lifespan (ILS): 36%
[4]; ip M5076, C/sc (every 3 hours x4 on Days 1, 5 and 9), 1.2 mg/kg/injection
  Increase in lifespan (ILS): 70%
[4]; ip M5076, C/sc (every 3 hours x4 on Days 1, 5 and 9), 5 mg/kg/injection
  Increase in lifespan (ILS): toxic
[4]; ip M5076, C/sc (every 3 hours x4 on Days 1, 5 and 9), 10 mg/kg/injection
  Increase in lifespan (ILS): toxic
[4]; [21]
  ILS: 71%
  cures: 1/8
[4]; [22]
  ILS: 75%
  cures: 1/8
[4]; mouse, in vivo
  ILS: 57
[4]; mouse, in vivo, 1.2 mg/kg
  Long-Term Survivors: 1/8
[4]; mouse, in vivo, ip, 0.62 mg/kg
  Long-Term Survivors: 1/8
[4]; mouse, in vivo, ip, 1.2 mg/kg
  Long-Term Survivors: 1/8
[5]; [23]
  IC50: 3.9 µg/mL
[5]; [24]
  IC50: 0.017 µg/mL
[6]; [23]
  IC50: 1.2 µg/mL
[6]; [24]
  IC50: 0.052 µg/mL
[7]
  IC50: 0.62 µg/mL
[8]; [25]
  IC50: 0.58 µg/mL
[8]; [26]
  IC50: 0.0097 µg/mL
[9]; SK-CO-1, 2 hr exposure, 7-day incubation, read-out: IC50 2 Hr. Exposure
  IC50: 0.23 µg/mL
[9]; SK-CO-1, 168 h, continuous 7-day exposure, read-out: IC50 Continuous Exposure
  IC50: 0.0039 µg/mL
[10]; [25]
  IC50: 0.44 µg/mL
[10]; [26]
  IC50: 0.015 µg/mL
[11]; [25]
  IC50: 1.7 µg/mL
[11]; [26]
  IC50: 0.075 µg/mL
[12]; [25]
  IC50: 0.12 µg/mL
[12]; [26]
  IC50: 0.0065 µg/mL
[13]; [23]
  IC50: 3.9 µg/mL
[13]; [24]
  IC50: 0.084 µg/mL
[14]
  IC50: 1.4 µg/mL
[15]
  solubility in water / aqueous vehicles: water-soluble
[16]; 3.2 mg/kg
  ILS: 14%
  NCK (net tumor cell kill): 0 log
[16]; 5.4 mg/kg
  ILS: 33%
  NCK (net tumor cell kill): 0 log
[16]; 9 mg/kg
  ILS: 90%
  NCK (net tumor cell kill): 2.2 log
[16]; 15 mg/kg
  ILS: 176%
  NCK (net tumor cell kill): 6.0 log
[16]; 25 mg/kg
  ILS: toxic
[16]; P388/doxorubicin in mice
  sensitivity / resistance of subline: retained sensitivity
[17]; 3.2 mg/kg
  Increase in lifespan (ILS): 42%
[17]; 5.4 mg/kg
  Increase in lifespan (ILS): 58%
[17]; 15 mg/kg
  ILS: 125
  Increase in lifespan (ILS): 132%
  cures: 1/6
[17]; 25 mg/kg
  Long-Term Survivors: 2/6
[17]; iv
  Increase in Lifespan (ILS) or Inhibition of Tumor Growth (TGI): Curative
[17]; iv, 7.9 mg/kg
  Increase in lifespan (ILS): 65%
[17]; iv, 14 mg/kg
  Increase in lifespan (ILS): 145%
[17]; iv, 19 mg/kg
  Long-Term Survivors: 2/6
[17]; iv, 25 mg/kg
  Increase in lifespan (ILS): toxic
[18]; 5 mg/kg/injection
  Increase in lifespan (ILS): 5%
[18]; 10 mg/kg/injection
  Increase in lifespan (ILS): 25%
[18]; 20 mg/kg/injection
  Increase in lifespan (ILS): toxic
[18]; 40 mg/kg/injection
  Increase in lifespan (ILS): toxic
[19]; 3.2 mg/kg
  ILS: 29%
  NCK (net tumor cell kill): 0 log
[19]; 5.4 mg/kg
  ILS: 57%
  NCK (net tumor cell kill): 2.1 log
[19]; 9 mg/kg
  ILS: 79%
  NCK (net tumor cell kill): 3.6 log
[19]; 15 mg/kg
  NCK (net tumor cell kill): 5.7 log
[19]; 25 mg/kg
  ILS: toxic
[19]; P388/mitoxantrone in mice
  sensitivity / resistance of subline: retained sensitivity
[20]
  Increase in Lifespan (ILS) or Inhibition of Tumor Growth (TGI): Curative
  long term survivors: 2/6
[20]; 15 mg/kg
  Long-Term Survivors: 4/6
[20]; 30 mg/kg
  Increase in lifespan (ILS): toxic
